Measured values published in patent US11312712B2, “Azabenzimidazoles and their use as AMPA receptor modulators” (Janssen Pharmaceutica NV, priority 2015, dated 2022).
pIC50: −log10 of the molar value.

Each compound was assayed against GluA1o-γ8 (GRIA1o-CACNG8 fusion construct) (Homo sapiens (Human), UniProt P42261+Q8WXS5) (assay: Calcium flux assay (FLIPR), inhibition of TARP γ8 dependent AMPA receptor activity). Conditions: GluA1o-γ8 (GRIA1o-CACNG8 fusion) in HEK293 cells, calcium flux after 15 μM glutamate.
Format: cell-based
Source text: This assay was used to test compounds for their ability to inhibit TARP γ8 dependent AMPA receptor activity. The AMPA receptor is a non-selective cation channel activated by glutamate. Ionotropic glutamate receptors normally desensitize too rapidly to allow detectable calcium influx in a FLIPR assay (Strange et al. (2006). “Functional characterisation of homomeric ionotropic glutamate receptors GluR1-GluR6 in a fluorescence-based high throughput screening assay.” Comb Chem High Throughput Screen 9(2): 147-158). But, this desensitization is incomplete, and a substantial steady-state current remains in the sustained presence of glutamate (Cho et al. (2007). “Two families of TARP isoforms that have distinct effects on the kinetic properties of AMPA receptors and synaptic currents.” Neuron 55(6): 890-904).
An in vitro assay was used to determine the potency of test compounds as inhibitors of the glutamate response of the channel formed by GluA1o-γ8. To ensure a 1:1 stoichiometry of GluA1o and γ8 subunits in the expressed channel, a fusion of the cDNAs for GRIA1o and CACNG8 was used. Following Shi et al (2009) “The stoichiometry of AMPA receptors and TARPs varies by neuronal cell type.” Neuron 62(5): 633-640), the C-terminus of the cDNA for GRIA1o was fused to the N-terminus of the cDNA for γ8. The linker sequence was QQQQQQQQQQEFAT. Channels expressed with this construct appear to have similar properties to channels formed by co-expression of GRIA1o with an excess of CACNG8 (Shi et al. 2009). A clonal cell line in HEK293 cells stably expressing this construct, with a geneticin selection marker, was generated for use in this assay.
Cell expressing the GRIA1o-CACNG8 fusion construct were grown in a monolayer in 96- or 384-well microtiter plates. They were washed with assay buffer (135 mM NaCl, 4 mM KCl, 3 mM CaCl2, 1 mM MgCl2, 5 mM glucose, 10 mM HEPES, pH 7.4, 300 mOs) using a Biotek EL405 plate washer. The cells were then loaded with a calcium-sensitive dye (Calcium-5 or Calcium-6, Molecular Devices) and the test compounds at a range of concentrations. Calcium flux following the addition of 15 μM glutamate was monitored using a Molecular Devices FLIPR Tetra. The fluorescence in each well was normalized to the fluorescence of negative and positive control wells. The negative control wells had no added compounds, and the positive control wells had been incubated with 10 μM CP465022 (a non-subtype-selective AMPA receptor antagonist) (Lazzaro et al. (2002). “Functional characterization of CP-465,022, a selective, noncompetitive AMPA receptor antagonist.” Neuropharmacology 42(2): 143-153). The responses to glutamate as functions of the test compound concentrations were fitted to a four-parameter logistic function. The fitted parameter corresponding to the midpoint was taken to be the potency of inhibition of the compound. The data in Table 4 below illustrates the observed potentcy for the compounds described herein. pIC50 refers to the negative log of the IC50 in molar.

GluA1o-γ8 (GRIA1o-CACNG8 fusion construct), sequence (P42261 other isoform, or with tags, fused parts or gaps): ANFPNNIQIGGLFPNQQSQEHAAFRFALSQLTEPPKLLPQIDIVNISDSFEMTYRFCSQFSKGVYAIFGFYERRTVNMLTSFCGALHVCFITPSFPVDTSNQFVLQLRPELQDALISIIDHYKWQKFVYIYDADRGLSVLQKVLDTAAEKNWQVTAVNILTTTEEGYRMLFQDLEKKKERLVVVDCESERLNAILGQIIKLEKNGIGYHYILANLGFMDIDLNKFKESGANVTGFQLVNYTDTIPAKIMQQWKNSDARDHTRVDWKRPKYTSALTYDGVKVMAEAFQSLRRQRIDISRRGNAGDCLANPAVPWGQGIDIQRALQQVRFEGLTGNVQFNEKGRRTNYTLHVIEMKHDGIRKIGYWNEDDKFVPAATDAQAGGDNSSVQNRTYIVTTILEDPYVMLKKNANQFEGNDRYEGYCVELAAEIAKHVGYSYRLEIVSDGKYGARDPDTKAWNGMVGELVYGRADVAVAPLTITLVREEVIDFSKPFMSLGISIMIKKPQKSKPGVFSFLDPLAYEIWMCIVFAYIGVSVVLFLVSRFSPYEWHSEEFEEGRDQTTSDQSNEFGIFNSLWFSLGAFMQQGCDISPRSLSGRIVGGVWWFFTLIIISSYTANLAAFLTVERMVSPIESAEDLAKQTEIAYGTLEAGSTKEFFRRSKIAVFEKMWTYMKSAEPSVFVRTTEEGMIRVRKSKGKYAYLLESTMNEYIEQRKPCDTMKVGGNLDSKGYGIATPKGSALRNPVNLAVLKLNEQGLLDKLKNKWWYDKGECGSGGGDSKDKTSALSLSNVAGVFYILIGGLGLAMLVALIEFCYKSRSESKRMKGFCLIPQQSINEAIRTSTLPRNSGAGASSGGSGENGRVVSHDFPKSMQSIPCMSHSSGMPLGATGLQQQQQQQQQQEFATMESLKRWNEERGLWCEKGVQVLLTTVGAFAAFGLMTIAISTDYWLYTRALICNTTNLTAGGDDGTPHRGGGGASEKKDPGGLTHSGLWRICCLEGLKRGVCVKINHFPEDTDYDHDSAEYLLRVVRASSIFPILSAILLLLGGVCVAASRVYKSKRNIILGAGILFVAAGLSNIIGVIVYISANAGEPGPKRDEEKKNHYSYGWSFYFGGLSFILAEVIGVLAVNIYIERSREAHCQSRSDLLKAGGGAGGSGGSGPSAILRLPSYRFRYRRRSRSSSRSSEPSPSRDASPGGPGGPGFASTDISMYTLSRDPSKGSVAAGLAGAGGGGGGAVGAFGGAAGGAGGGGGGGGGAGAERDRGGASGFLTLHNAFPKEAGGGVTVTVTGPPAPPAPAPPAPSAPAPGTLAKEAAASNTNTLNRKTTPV

| Structure (SMILES) | pIC50 |
| --- | --- |
| O=c1[nH]c2ccc(-n3c(-c4ccc(F)cc4)nc4ccc(C(F)(F)F)nc43)cc2s1 [Example 16, 6-[2-(4-Fluorophenyl)-5-(trifluoromethyl)imidazo[4,5-b]pyridin-3-yl]-3H-1,3-benzothiazol-2-one] | 9.20 |
| Cc1ccc2nc(-c3ccccc3)n(-c3ccc4[nH]c(=O)sc4c3)c2n1 [Example 17, 6-(5-Methyl-2-phenyl-imidazo[4,5-b]pyridin-3-yl)-3H-1,3-benzothiazol-2-one] | 9.30 |
| COc1ccc2nc(-c3ccccc3)n(-c3ccc4[nH]c(=O)sc4c3)c2n1 [Example 18, 6-(5-Methoxy-2-phenyl-imidazo[4,5-b]pyridin-3-yl)-3H-1,3-benzothiazol-2-one] | 8.40 |
| CC(C)(C)c1nc2ccc(C(F)(F)F)nc2n1-c1ccc2[nH]c(=O)sc2c1 [Example 19, 6-[2-tert-Butyl-5-(trifluoromethyl)imidazo[4,5-b]pyridin-3-yl]-3H-1,3-benzothiazol-2-one] | 8.90 |
| O=c1[nH]c2ccc(-n3c(-c4ccc(F)cc4)nc4cccnc43)cc2s1 [Example 20, 6-[2-(4-Fluorophenyl)imidazo[4,5-b]pyridin-3-yl]-3H-1,3-benzothiazol-2-one] | 8.30 |
| O=c1[nH]c2ccc(-n3c(-c4ccc(F)cc4)nc4cccnc43)cc2[nH]1 [Example 21, 5-[2-(4-Fluorophenyl)imidazo[4,5-b]pyridin-3-yl]-1,3-dihydrobenzimidazol-2-one] | 8.00 |
| Fc1ccc(-c2nc3cccnc3n2-c2ccc3[nH]ncc3c2)cc1 [Example 22, 2-(4-Fluorophenyl)-3-(1H-indazol-5-yl)imidazo[4,5-b]pyridine] | 7.50 |
| O=C1Cc2cc(-n3c(-c4ccc(F)cc4)nc4cccnc43)ccc2N1 [Example 23, 5-[2-(4-Fluorophenyl)imidazo[4,5-b]pyridin-3-yl]indolin-2-one] | 7.60 |
| O=c1[nH]c2ccc(-n3c(-c4ccc(F)cc4)nc4cccnc43)cc2o1 [Example 24, 6-[2-(4-Fluorophenyl)imidazo[4,5-b]pyridin-3-yl]-3H-1,3-benzoxazol-2-one] | 6.50 |
| O=c1[nH]c2ccc(-n3c(-c4ccccc4)nc4cccnc43)cc2s1 [Example 25, 6-(2-Phenylimidazo[4,5-b]pyridin-3-yl)-3H-1,3-benzothiazol-2-one] | 8.00 |
| c1ccc(-c2nc3cccnc3n2-c2ccc3[nH]ccc3c2)cc1 [Example 26, 3-(1H-Indol-5-yl)-2-phenyl-imidazo[4,5-b]pyridine] | 6.30 |
| Cc1ccc2nc(-c3ccc(F)cc3)n(-c3ccc4[nH]c(=O)sc4c3)c2n1 [Example 27, 6-[2-(4-Fluorophenyl)-5-methyl-imidazo[4,5-b]pyridin-3-yl]-3H-1,3-benzothiazol-2-one] | 9.10 |
| O=c1[nH]c2ccc(-n3c(-c4ccc(F)nc4)nc4cccnc43)cc2s1 [Example 28, 6-[2-(6-Fluoro-3-pyridyl)imidazo[4,5-b]pyridin-3-yl]-3H-1,3-benzothiazol-2-one] | 6.60 |
| Cc1ccc2nc(-c3ccnc(F)c3)n(-c3ccc4[nH]c(=O)sc4c3)c2n1 [Example 29, 6-[2-(2-Fluoro-4-pyridyl)-5-methyl-imidazo[4,5-b]pyridin-3-yl]-3H-1,3-benzothiazol-2-one] | 8.60 |
| O=c1[nH]c2ccc(-n3c(-c4ccc(F)cc4)nc4ccc(Cl)nc43)cc2s1 [Example 30, 6-[5-Chloro-2-(4-fluorophenyl)imidazo[4,5-b]pyridin-3-yl]-3H-1,3-benzothiazol-2-one] | 9.70 |
| O=c1[nH]c2ccc(-n3c(-c4ccnc(F)c4)nc4ccc(C(F)(F)F)nc43)cc2s1 [Example 31, 6-[2-(2-Fluoro-4-pyridyl)-5-(trifluoromethyl)imidazo[4,5-b]pyridin-3-yl]-3H-1,3-benzothiazol-2-one] | 9.60 |
| O=c1[nH]c2ccc(-n3c(-c4ccccc4)nc4ccc(Br)nc43)cc2s1 [Example 32, 6-(5-Bromo-2-phenyl-imidazo[4,5-b]pyridin-3-yl)-3H-1,3-benzothiazol-2-one] | 9.30 |

| Structure (SMILES) | pIC50 |
| --- | --- |
| O=C1Cc2cc(-n3c(-c4ccc(F)cc4)nc4ccc(C(F)(F)F)nc43)ccc2N1 [Example 33, 5-[2-(4-Fluorophenyl)-5-(trifluoromethyl)imidazo[4,5-b]pyridin-3-yl]indolin-2-one] | 9.20 |
| O=C1Cc2cc(-n3c(-c4ccccc4)nc4cccnc43)ccc2N1 [Example 34, 5-(2-Phenylimidazo[4,5-b]pyridin-3-yl)indolin-2-one] | 7.90 |
| Cc1ccc2nc(-c3ccc(F)cc3)n(-c3ccc4c(c3)CC(=O)N4)c2n1 [Example 35, 5-[2-(4-Fluorophenyl)-5-methyl-imidazo[4,5-b]pyridin-3-yl]indolin-2-one] | 8.50 |
| O=C1Cc2cc(-n3c(-c4ccccc4)nc4ccc(C(F)(F)F)nc43)ccc2N1 [Example 36, 5-[2-Phenyl-5-(trifluoromethyl)imidazo[4,5-b]pyridin-3-yl]indolin-2-one] | 9.40 |
| O=C1Cc2cc(-n3c(-c4ccc(F)cc4)nc4ccc(F)nc43)ccc2N1 [Example 37, 5-[5-Fluoro-2-(4-fluorophenyl)imidazo[4,5-b]pyridin-3-yl]indolin-2-one] | 8.20 |
| CC(C)c1nc2ccc(C(F)(F)F)nc2n1-c1ccc2c(c1)CC(=O)N2 [Example 38, 5-[2-Isopropyl-5-(trifluoromethyl)imidazo[4,5-b]pyridin-3-yl]indolin-2-one] | 9.00 |
| O=c1[nH]c2ccc(-n3c(C4CCCC4)nc4ccc(C(F)(F)F)nc43)cc2s1 [Example 39, 6-[2-Cyclopentyl-5-(trifluoromethyl)imidazo[4,5-b]pyridin-3-yl]-3H-1,3-benzothiazol-2-one] | 9.70 |
| O=c1[nH]c2ccc(-n3c(C4CCCCC4)nc4ccc(C(F)(F)F)nc43)cc2s1 [Example 40, 6-[2-Cyclohexyl-5-(trifluoromethyl)imidazo[4,5-b]pyridin-3-yl]-3H-1,3-benzothiazol-2-one] | 9.80 |
| O=c1[nH]c2ccc(-n3c(C4CC4)nc4ccc(C(F)(F)F)nc43)cc2s1 [Example 41, 6-[2-Cyclopropyl-5-(trifluoromethyl)imidazo[4,5-b]pyridin-3-yl]-3H-1,3-benzothiazol-2-one] | 9.40 |
| O=c1[nH]c2ccc(-n3c(C4CCOCC4)nc4ccc(C(F)(F)F)nc43)cc2s1 [Example 42, 6-[2-Tetrahydropyran-4-yl-5-(trifluoromethyl)imidazo[4,5-b]pyridin-3-yl]-3H-1,3-benzothiazol-2-one] | 7.40 |
| FC(F)(F)c1ccc2nc(C3CC3)n(-c3ccc4[nH]ncc4c3)c2n1 [Example 43, 2-Cyclopropyl-3-(1H-indazol-5-yl)-5-(trifluoromethyl)imidazo[4,5-b]pyridine] | 8.70 |
| CCc1nc2ccc(C(F)(F)F)nc2n1-c1ccc2[nH]c(=O)sc2c1 [Example 44, 6-[2-Ethyl-5-(trifluoromethyl)imidazo[4,5-b]pyridin-3-yl]-3H-1,3-benzothiazol-2-one] | 9.40 |
| CC(C)c1nc2ccc(C(F)(F)F)nc2n1-c1ccc2[nH]c(=O)sc2c1 [Example 45, 6-[2-Isopropyl-5-(trifluoromethyl)imidazo[4,5-b]pyridin-3-yl]-3H-1,3-benzothiazol-2-one] | 9.40 |
| Cc1nc2ccc(C(F)(F)F)nc2n1-c1ccc2[nH]c(=O)sc2c1 [Example 46, 6-[2-Methyl-5-(trifluoromethyl)imidazo[4,5-b]pyridin-3-yl]-3H-1,3-benzothiazol-2-one] | 8.20 |
| Cc1nc2ccc(C(F)(F)F)nc2n1-c1ccc2c(c1)CC(=O)N2 [Example 47, 5-[2-Methyl-5-(trifluoromethyl)imidazo[4,5-b]pyridin-3-yl]indolin-2-one] | 7.20 |
| O=C1Cc2cc(-n3c(C4CCCCC4)nc4ccc(C(F)(F)F)nc43)ccc2N1 [Example 48, 5-[2-Cyclohexyl-5-(trifluoromethyl)imidazo[4,5-b]pyridin-3-yl]indolin-2-one] | 9.20 |
| O=C1Cc2cc(-n3c(C4CCC4)nc4ccc(C(F)(F)F)nc43)ccc2N1 [Example 49, 5-[2-Cyclobutyl-5-(trifluoromethyl)imidazo[4,5-b]pyridin-3-yl]indolin-2-one] | 9.50 |
